Paper PMC12029531, “Selenium in Action: Exploring the Biological Wonders of Hydroselenite Salts” (Molecules, 2025)
Converted amounts (≈) assume the structure as drawn. Where two headings read alike, the source gives them in different places.

Assays:
[1] = tested on: Panc-1 (pancreatic cancer); test: MTT antiproliferative assay; assay type: cell-based, human; conditions: mean ± SD
Escherichia coli = test: MIC and MBC, broth micro-dilution; assay type: cell-based; conditions: E. coli; for MIC: 24 h
[2] = tested on: Staphylococcus epidermidis; test: MIC and MBC, broth micro-dilution; assay type: cell-based; conditions: S. epidermidis; for MIC: 24 h
[3] = tested on: normal human dermal fibroblasts (NHDF); test: MTT assay in non-malignant cells; assay type: cell-based; conditions: 48 h, mean ± SD
Klebsiella pneumoniae = test: MIC and MBC, broth micro-dilution; assay type: cell-based; conditions: K. pneumoniae; for MIC: 24 h
[4] = tested on: MCF-7 (human breast adenocarcinoma cells); test: MTT antiproliferative assay; assay type: cell-based; conditions: MCF-7, 48 h, mean ± SD
Pseudomonas aeruginosa = test: MIC and MBC, broth micro-dilution; assay type: cell-based
Bacillus sphaericus = test: MIC and MBC, broth micro-dilution; assay type: cell-based; conditions: B. sphaericus; for MIC: 24 h
DU-145 (prostate cancer) = test: MTT antiproliferative assay; assay type: cell-based, human; conditions: DU-145, 48 h, mean ± SD
Staphylococcus aureus = test: MIC and MBC, broth micro-dilution; assay type: cell-based; conditions: S. aureus; for MIC: 24 h
[5] = tested on: U251 (glioblastoma cancer); test: MTT antiproliferative assay; assay type: cell-based, human; conditions: U251, 48 h, mean ± SD
U251 cell line = test: Cytotoxicity of selenous acid (MTS assay, Figure S60); assay type: cell-based, human; conditions: U251, 48 h, 1–100 µM
From the text: The striking difference in the potency of Se salts as compared to their corresponding parent compounds raises a question: Could the release of the Se salt part of the molecules be solely responsible for these activities? Nevertheless, after thoroughly analyzing the in vitro antiproliferative activities and the structure of the reported compounds, our initial hypothesis is that the antitumor activity of the new selenium salts might not be due to the release of the Se inorganic, as evinced by the following four experimental outcomes: (1) All the salt compounds should have shown similar efficacy at the same molar concentrations if the toxicity was solely due to the release of the Se salt part. […] To confirm this hypothesis and due to the scarce number of reported antitumor activities of selenous acid, we evaluated H2SeO3 in the U251 cell line in our experimental setup. […] Since the IC50 value of selenous acid is in the range of what is observed for SLT-1-6 (Table 3), the increased antiproliferative activity of the salts might or might not be linked to the release of the Se salt fragment of the molecule. […] Further studies are needed to fully characterize and understand the behavior of these selenous salts.
Figure S58. Dose-response curves of SLT-6 in all the cell lines present in the NCI panel.
Figure S59. […]
Cell viability was assessed using an MTS assay. […]

Panc-1 cells = conditions: several experimental conditions; cited from earlier work
[6] = Escherichia coli, read-out: MIC
[7] = Escherichia coli, read-out: MBC
[8] = Staphylococcus epidermidis, read-out: MIC
[9] = Staphylococcus epidermidis, read-out: MBC
[10] = Klebsiella pneumoniae, read-out: MBC
[11] = Klebsiella pneumoniae, read-out: MIC
[12] = Pseudomonas aeruginosa; P. aeruginosa; read-out: MBC
[13] = Lysinibacillus sphaericus, read-out: MIC
[14] = Lysinibacillus sphaericus, read-out: MBC
[15] = Staphylococcus aureus, read-out: MIC
[16] = Staphylococcus aureus, read-out: MBC
[17] = Pseudomonas aeruginosa; P. aeruginosa, 24 h; read-out: MIC

Row | SMILES | IC50 ([1]; Homo sapiens, PANC-1, 48 h) [µM] | MIC (Escherichia coli; [6]) [µg/mL] | MBC (Escherichia coli; [7]) [µg/mL] | MBC [2, 9] [µg/mL] | MBC (Klebsiella pneumoniae; [10]) [µg/mL] | MIC (Klebsiella pneumoniae; [11]) [µg/mL] | IC50 [4] [µM] | MBC (Pseudomonas aeruginosa; [12]) [µg/mL] | MIC (Bacillus sphaericus; [13]) [µg/mL] | MBC (Bacillus sphaericus; [14]) [µg/mL] | IC50 (DU-145 (prostate cancer)) [µM] | MIC (Staphylococcus aureus; [15]) [µg/mL] | MBC (Staphylococcus aureus; [16]) [µg/mL] | IC50 [5] [µM] | MBC [2] [µg/mL] | MIC [2] [µg/mL] | IC50 [3] [µM] | MBC (Klebsiella pneumoniae) [µg/mL] | MIC (Pseudomonas aeruginosa; P. aeruginosa, 24 h) [µg/mL] | MBC (Staphylococcus aureus) [µg/mL] | also measured
1 | COc1cc(Cc2cnc(N)nc2N)cc(OC)c1OC [AB-2, trimethoprim] | > 100 | 1.56 (≈ 5.37 µM) | 6.25 (≈ 21.5 µM) | > 200 | 12.5 (≈ 43.1 µM) | 3.13 (≈ 10.8 µM) | > 100 | > 200 | 1.56 (≈ 5.37 µM) | 6.25 (≈ 21.5 µM) | > 100 | 1.56 (≈ 5.37 µM) | 3.13 (≈ 10.8 µM) | > 100 | – | – | – | – | – | – | MIC [2, 8]: > 200 µg/mL; IC50 ([3]; Homo sapiens): 6.47 ± 1.79 µM; MIC (Pseudomonas aeruginosa; Pseudomonas aeruginosa, 24 h, P. aeruginosa, 24 h; read-out: MIC): 50 µg/mL (≈ 172 µM)
2 | Nc1ccc(S(=O)(=O)c2ccc(N)cc2)cc1 [AB-3, dapsone] | > 100 | – | – | – | – | – | > 100 | – | – | – | > 100 | – | – | > 100 | >200 | >200 | > 100 | >200 | >200 | >200 | MBC (Escherichia coli): >200 µg/mL; MIC (Escherichia coli): >200 µg/mL; MIC (Klebsiella pneumoniae): >200 µg/mL; MBC (Pseudomonas aeruginosa; P. aeruginosa): >200 µg/mL; MBC (Bacillus sphaericus): >200 µg/mL; MIC (Bacillus sphaericus): >200 µg/mL; MIC (Staphylococcus aureus): >200 µg/mL
3 | Nc1ccc(S(=O)(=O)Nc2ncccn2)cc1 [AB-4, sulfadiazine] | – | > 200 | > 200 | > 200 | > 200 | > 200 | > 100 | > 200 | > 200 | > 200 | > 100 | > 200 | > 200 | > 100 | – | >200 | > 100 | – | 50 (≈ 200 µM) | – | IC50 ([1]; Panc-1, 48 h): > 100 µM
4 | NNC(=O)c1ccncc1 [AB-5, isoniazid] | > 100 | > 200 | > 200 | > 200 | > 200 | > 200 | > 100 | > 200 | > 200 | > 200 | 99.92 ± 0.2 | > 200 | > 200 | > 100 | – | – | 41.2 ± 12.1 | – | – | – | MIC [2, 8]: > 200 µg/mL; MIC (Pseudomonas aeruginosa; [17]): > 200 µg/mL
5 | CNC(C)C1CCC(N)C(OC2C(N)CC(N)C(OC3OCC(C)(O)C(NC)C3O)C2O)O1 (stereo not drawn) [AB-6, gentamicin] | – | 25 (≈ 52.3 µM) | 25 (≈ 52.3 µM) | – | – | – | > 100 | 12.5 (≈ 26.2 µM) | 0.2 (≈ 0.419 µM) | 0.78 (≈ 1.63 µM) | > 100 | 25 (≈ 52.3 µM) | – | > 100 | 0.39 (≈ 0.817 µM) | 0.39 (≈ 0.817 µM) | > 100 | 3.13 (≈ 6.55 µM) | – | 50 (≈ 105 µM) | IC50 ([1]; Panc-1, 48 h): > 100 µM; MIC (Klebsiella pneumoniae; Klebsiella pneumoniae): 1.56 µg/mL (≈ 3.27 µM); MIC (Pseudomonas aeruginosa; [17]): 6.56 µg/mL (≈ 13.7 µM)
6 | O=[Se](O)O [H2SeO3, selenous acid] | – | – | – | – | – | – | – | – | – | – | – | – | – | – | 200 (≈ 1550 µM) | 100 (≈ 775 µM) | – | 200 (≈ 1550 µM) | 200 (≈ 1550 µM) | 200 (≈ 1550 µM) | MBC (Escherichia coli): >200 µg/mL; MIC (Escherichia coli): 200 µg/mL (≈ 1550 µM); IC50 (U251 cell line): 1.04 µM; MIC (Klebsiella pneumoniae): 100 µg/mL (≈ 775 µM); MBC (Pseudomonas aeruginosa; P. aeruginosa): >200 µg/mL; MBC (Bacillus sphaericus): 200 µg/mL (≈ 1550 µM); MIC (Bacillus sphaericus): 100 µg/mL (≈ 775 µM); MIC (Staphylococcus aureus): 100 µg/mL (≈ 775 µM)
7 | O=[Se]([O-])[O-].[Na+].[Na+] [sodium selenite] | – | – | – | – | – | – | – | – | – | – | – | – | – | – | – | – | – | – | – | – | IC50 (Panc-1 cells): low micromolar range
